Earlier results as cited in patent EP0454783B1, “SITE SPECIFIC IN-VIVO ACTIVATION OF THERAPEUTIC DRUGS” (Akzo Nobel N.V., priority 1989, dated 1990).

Biological target: lysozyme (Gallus gallus, UniProt P00698)
Conditions: Imoto et al, 1972

lysozyme, sequence (P00698 19-147): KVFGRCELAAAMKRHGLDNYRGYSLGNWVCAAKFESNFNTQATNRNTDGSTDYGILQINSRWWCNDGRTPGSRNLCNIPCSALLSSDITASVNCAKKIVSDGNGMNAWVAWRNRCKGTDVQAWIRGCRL

For CC(=O)N[C@H]1[C@H](O[C@H]2[C@H](O)[C@@H](NC(C)=O)[C@H](O[C@H]3[C@H](O)[C@@H](NC(C)=O)C(O)O[C@@H]3CO)O[C@@H]2CO)O[C@H](CO)[C@@H](O[C@@H]2O[C@H](CO)[C@@H](O[C@@H]3O[C@H](CO)[C@@H](O[C@@H]4O[C@H](CO)[C@@H](O)[C@H](O)[C@H]4NC(C)=O)[C@H](O)[C@H]3NC(C)=O)[C@H](O)[C@H]2NC(C)=O)[C@@H]1O (stereo partly shown) [chitohexaose], which “fold higher rate of cleavage by lysozyme than chitotriose” value is on record?
The value was 30,000 fold.
